Patent US9963467B2, “Boronic acid derivatives and therapeutic uses thereof” (Rempex Pharmaceuticals, Inc., priority 2014, dated 2018)

How the values were obtained:
OXA-48 = OXA-48 (Klebsiella pneumoniae, UniProt Q6XEC0); assay: Ki, nitrocefin cleavage by purified enzyme, OXA-48; format: biochemical; details: nitrocefin reporter substrate; read-out: Ki (OXA-48, NCF)
Procedure, shortened: (§1)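 Readout: nitrocefin hydrolysis, A490 recorded every 10 sec over 10 min. Enzyme and inhibitor (varied concentrations) preincubated 10 min, RT, in reaction buffer before substrate addition.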

CTX-M-14 = CTX-M-14 (Escherichia coli, UniProt Q9L5C7); assay: Ki, nitrocefin cleavage by purified enzyme, CTX-M-14; format: biochemical; details: nitrocefin reporter substrate; read-out: Ki (CTX-M-14, NCF)
Procedure, shortened: as §1

EC1010 (CMY-6) [1] = assay: organism not typed; format: cell-based
KP1086 (OXA-48) = assay: Biapenem potentiation (MPC@1), KP1086; details: BLI with biapenem at 1 μg/mL
KP1004 (KPC-2) [2] = assay: Aztreonam potentiation (MPC@4), KP1004; format: cell-based; details: BLI with aztreonam at 4 μg/mL
EC1010 (CMY-6) [3] = assay: Tigemonam potentiation (MPC@4), EC1010; format: cell-based; details: BLI with tigemonam at 4 μg/mL
P99 = P99 (Enterobacter cloacae, UniProt P05364); assay: Ki, nitrocefin cleavage by purified enzyme, P99; format: biochemical; details: nitrocefin reporter substrate; read-out: Ki (P99, NCF)
Procedure, shortened: as §1

KP1005 (CTX-M-14) [4] = assay: Tigemonam potentiation (MPC@4), KP1005; format: cell-based; details: BLI with tigemonam at 4 μg/mL
ec302 (TEM-10) [5] = assay: Aztreonam potentiation (MPC@4), ec302; format: cell-based; details: BLI with aztreonam at 4 μg/mL
ECL1002 [6] = assay: Aztreonam potentiation (MPC@4), ECL1002; format: cell-based; details: BLI with aztreonam at 4 μg/mL
ec308 (SHV-5) = assay: Tigemonam potentiation (MPC@4), ec308; format: cell-based
ECL1002 [7] = assay: Tigemonam potentiation (MPC@4), ECL1002; format: cell-based; details: BLI with tigemonam at 4 μg/mL
Pa AmpC = Pa AmpC (Pseudomonas aeruginosa, UniProt P24735); assay: Ki, nitrocefin cleavage by purified enzyme, Pa AmpC; format: biochemical; details: nitrocefin reporter substrate; read-out: Ki (Pa AmpC, NCF)
Procedure, shortened: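 Ki values were determined with nitrocefin as the reporter substrate. Purified enzymes were incubated with several inhibitor concentrations for 10 min at room temperature before substrate addition, and cleavage was monitored at 490 nm for 10 min.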

KP1009 (CTX-M-15) [8] = assay: organism not typed; format: cell-based
KP1005 (CTX-M-14) [9] = assay: Aztreonam potentiation (MPC@4), KP1005; format: cell-based; details: BLI with aztreonam at 4 μg/mL
KP1004 (KPC-2) [10] = assay: Biapenem potentiation (MPC@1), KP1004; details: BLI with biapenem at 1 μg/mL
KP1010 (SHV-12) = assay: Tigemonam potentiation (MPC@4), KP1010; format: cell-based
SHV-12 = SHV-12 (Klebsiella pneumoniae, UniProt P0AD64, E235K/G234S/L31Q); assay: Ki, nitrocefin cleavage by purified enzyme, SHV-12; format: biochemical; details: nitrocefin reporter substrate; read-out: Ki (SHV-12, NCF)
Procedure, shortened: as §1

KP1009 (CTX-M-15) [11] = assay: Tigemonam potentiation (MPC@4), KP1009; format: cell-based; details: BLI with tigemonam at 4 μg/mL
KPC-2 = KPC-2 (Klebsiella pneumoniae, UniProt Q9F663); assay: Ki, nitrocefin cleavage by purified enzyme, KPC-2; format: biochemical; details: nitrocefin reporter substrate; read-out: Ki (KPC-2, NCF)
Procedure, shortened: as §1

ec302 (TEM-10) [12] = assay: Tigemonam potentiation (MPC@4), ec302; format: cell-based

Pa AmpC, sequence (P24735 27-397): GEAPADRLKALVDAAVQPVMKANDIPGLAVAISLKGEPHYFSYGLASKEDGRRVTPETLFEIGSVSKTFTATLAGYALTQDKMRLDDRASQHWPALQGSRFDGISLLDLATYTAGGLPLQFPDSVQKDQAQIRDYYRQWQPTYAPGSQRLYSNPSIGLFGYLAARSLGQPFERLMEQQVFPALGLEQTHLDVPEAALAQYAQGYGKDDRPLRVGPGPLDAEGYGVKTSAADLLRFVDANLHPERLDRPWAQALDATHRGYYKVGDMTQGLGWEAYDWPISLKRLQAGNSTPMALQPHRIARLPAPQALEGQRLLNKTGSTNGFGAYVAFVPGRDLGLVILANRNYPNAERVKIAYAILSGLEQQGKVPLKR
P99, sequence (P05364 21-381): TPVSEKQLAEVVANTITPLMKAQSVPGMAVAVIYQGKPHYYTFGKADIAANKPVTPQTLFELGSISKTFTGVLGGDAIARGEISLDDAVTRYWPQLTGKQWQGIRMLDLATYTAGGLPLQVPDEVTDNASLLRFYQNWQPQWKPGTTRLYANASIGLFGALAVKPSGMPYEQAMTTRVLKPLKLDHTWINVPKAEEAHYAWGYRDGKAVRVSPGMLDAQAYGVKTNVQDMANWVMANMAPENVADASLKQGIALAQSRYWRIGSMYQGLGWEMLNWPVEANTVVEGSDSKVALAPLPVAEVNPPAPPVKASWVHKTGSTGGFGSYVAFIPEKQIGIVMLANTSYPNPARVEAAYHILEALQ
SHV-12, sequence (P0AD64 22-286 L31Q/G234S/E235K): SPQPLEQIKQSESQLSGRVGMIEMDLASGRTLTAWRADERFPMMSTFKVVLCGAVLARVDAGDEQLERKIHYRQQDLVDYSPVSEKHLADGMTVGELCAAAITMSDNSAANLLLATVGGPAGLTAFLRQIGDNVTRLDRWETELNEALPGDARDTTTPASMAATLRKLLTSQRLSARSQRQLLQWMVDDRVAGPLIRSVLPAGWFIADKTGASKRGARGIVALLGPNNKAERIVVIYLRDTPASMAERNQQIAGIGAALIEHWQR
CTX-M-14, sequence (Q9L5C7 29-291): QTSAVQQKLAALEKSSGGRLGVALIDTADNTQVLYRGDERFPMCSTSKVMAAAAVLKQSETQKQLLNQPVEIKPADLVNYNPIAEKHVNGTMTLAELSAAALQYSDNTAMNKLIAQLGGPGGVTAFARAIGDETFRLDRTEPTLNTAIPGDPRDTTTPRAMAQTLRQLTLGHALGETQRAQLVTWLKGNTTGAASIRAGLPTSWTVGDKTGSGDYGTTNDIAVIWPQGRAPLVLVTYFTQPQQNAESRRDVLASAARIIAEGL
KPC-2, sequence (Q9F663 25-293, looked up, species assumed): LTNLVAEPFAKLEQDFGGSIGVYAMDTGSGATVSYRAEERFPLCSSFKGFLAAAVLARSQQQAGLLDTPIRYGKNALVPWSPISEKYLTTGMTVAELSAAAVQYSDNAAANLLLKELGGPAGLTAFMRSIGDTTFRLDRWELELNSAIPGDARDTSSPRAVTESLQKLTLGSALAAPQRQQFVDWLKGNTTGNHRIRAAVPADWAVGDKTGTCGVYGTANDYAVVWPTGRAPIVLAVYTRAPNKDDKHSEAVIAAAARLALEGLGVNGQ
OXA-48, sequence (Q6XEC0 23-265, looked up, species assumed): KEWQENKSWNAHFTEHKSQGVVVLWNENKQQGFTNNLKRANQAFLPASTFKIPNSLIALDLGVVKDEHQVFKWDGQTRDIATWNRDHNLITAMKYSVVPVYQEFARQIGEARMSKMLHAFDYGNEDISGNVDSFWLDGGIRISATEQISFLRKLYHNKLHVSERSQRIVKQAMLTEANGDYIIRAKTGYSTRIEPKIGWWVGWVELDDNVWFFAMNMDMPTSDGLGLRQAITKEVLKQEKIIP

| Compound | Ki (OXA-48) [nM] | Ki (CTX-M-14) [nM] | AZT MPC4 CMY-6 EC1010 (EC1010 (CMY-6) [1]) | BPM MPC1 OXA-48 KP1086 (KP1086 (OXA-48)) | AZT MPC4 KPC-2 KP1004 (KP1004 (KPC-2) [2]) | TIG MPC4 CMY-6 EC1010 (EC1010 (CMY-6) [3]) | Ki (P99) [nM] | TIG MPC4 CTX-M-14 KP1005 (KP1005 (CTX-M-14) [4]) | AZT MPC4 TEM-10 ec302 (ec302 (TEM-10) [5]) | AZT MPC4 ECL1002 (ECL1002 [6]) | TIG MPC4 SHV-5 ec308 (ec308 (SHV-5)) | TIG MPC4 ECL1002 (ECL1002 [7]) | Ki (Pa AmpC) [nM] | AZT MPC4 CTX-M-15 KP1009 (KP1009 (CTX-M-15) [8]) | AZT MPC4 CTX-M-14 KP1005 (KP1005 (CTX-M-14) [9]) | BPM MPC1 KP1004 KPC-2 (KP1004 (KPC-2) [10]) | TIG MPC4 SHV-12 KP1010 (KP1010 (SHV-12)) | Ki (SHV-12) [nM] | TIG MPC4 CTX-M-15 KP1009 (KP1009 (CTX-M-15) [11]) | Ki (KPC-2) [nM] | further results |
| --- | --- | --- | --- | --- | --- | --- | --- | --- | --- | --- | --- | --- | --- | --- | --- | --- | --- | --- | --- | --- | --- |
| CSCC(=O)N[C@H]1Cc2ccc(OCC(=O)O)c(C(=O)O)c2OB1O [Compound 33, (R)-7-(carboxymethoxy)-2-hydroxy-3-(2-(methylthio)acetamido)-3,4-dihydro-2H-benzo[e][1,2]oxaborinine-8-carboxylic acid] | < 1 | < 1 | Y (key: X: MIC of less than 1 ng/mL; Y: MIC of 1 μg/mL to 10 μg/mL; Z: MIC of greater than 10 μg/mL) | Z (MIC of greater than 10 μg/mL) | Y (MIC of 1 μg/mL to 10 μg/mL) | Y (MIC of 1 μg/mL to 10 μg/mL) | > 10 | Y (MIC of 1 μg/mL to 10 μg/mL) | Y (MIC of 1 μg/mL to 10 μg/mL) | Y (MIC of 1 μg/mL to 10 μg/mL) | Y (key: X: MIC of less than 1 ng/mL; Y: MIC of 1 μg/mL to 10 μg/mL; Z: MIC of greater than 10 μg/mL) | Y (MIC of 1 μg/mL to 10 μg/mL) | > 10 | Y (key: X: MIC of less than 1 ng/mL; Y: MIC of 1 μg/mL to 10 μg/mL; Z: MIC of greater than 10 μg/mL) | Y (MIC of 1 μg/mL to 10 μg/mL) | X (MIC of less than 1 μg/mL) | X (key: X: MIC of less than 1 μg/mL; Y: MIC of 1 μg/mL to 10 μg/mL; Z: MIC of greater than 10 μg/mL) | < 1 | Y (MIC of 1 μg/mL to 10 μg/mL) | > 10 | TIG MPC4 TEM-10 ec302 (ec302 (TEM-10) [12]): Z (key: X: MIC of less than 1 ng/mL; Y: MIC of 1 μg/mL to 10 μg/mL; Z: MIC of greater than 10 μg/mL) |
| CS(=O)(=O)CC(=O)N[C@H]1Cc2ccc(F)c(C(=O)O)c2OB1O [Compound 9, (R)-7-fluoro-2-hydroxy-3-(2-(methylsulfonyl)acetamido)-3,4-dihydro-2H-benzo[e][1,2]oxaborinine-8-carboxylic acid] | > 10 | 1 to 10 | Y (key: X: MIC of less than 1 ng/mL; Y: MIC of 1 μg/mL to 10 μg/mL; Z: MIC of greater than 10 μg/mL) | Z (MIC of greater than 10 μg/mL) | Y (MIC of 1 μg/mL to 10 μg/mL) | X (MIC of less than 1 μg/mL) | > 10 | Y (MIC of 1 μg/mL to 10 μg/mL) | Y (MIC of 1 μg/mL to 10 μg/mL) | Y (MIC of 1 μg/mL to 10 μg/mL) | X (key: X: MIC of less than 1 μg/mL; Y: MIC of 1 μg/mL to 10 μg/mL; Z: MIC of greater than 10 μg/mL) | X (MIC of less than 1 μg/mL) | > 10 | Y (key: X: MIC of less than 1 ng/mL; Y: MIC of 1 μg/mL to 10 μg/mL; Z: MIC of greater than 10 μg/mL) | Y (MIC of 1 μg/mL to 10 μg/mL) | X (MIC of less than 1 μg/mL) | X (key: X: MIC of less than 1 μg/mL; Y: MIC of 1 μg/mL to 10 μg/mL; Z: MIC of greater than 10 μg/mL) | < 1 | Y (MIC of 1 μg/mL to 10 μg/mL) | > 10 | TIG MPC4 TEM-10 ec302 (ec302 (TEM-10) [12]): Z (key: X: MIC of less than 1 ng/mL; Y: MIC of 1 μg/mL to 10 μg/mL; Z: MIC of greater than 10 μg/mL) |
